In BindingDB's records for doi:10.1021/acs.jmedchem.7b01525 (University of Montreal, 2017) one finds EC50 data, which are given here for 23 molecules.

The target of test [1] is T1, Urotensin-2 receptor (Rattus norvegicus, UniProt P49684).
T1 sequence (P49684 whole entry): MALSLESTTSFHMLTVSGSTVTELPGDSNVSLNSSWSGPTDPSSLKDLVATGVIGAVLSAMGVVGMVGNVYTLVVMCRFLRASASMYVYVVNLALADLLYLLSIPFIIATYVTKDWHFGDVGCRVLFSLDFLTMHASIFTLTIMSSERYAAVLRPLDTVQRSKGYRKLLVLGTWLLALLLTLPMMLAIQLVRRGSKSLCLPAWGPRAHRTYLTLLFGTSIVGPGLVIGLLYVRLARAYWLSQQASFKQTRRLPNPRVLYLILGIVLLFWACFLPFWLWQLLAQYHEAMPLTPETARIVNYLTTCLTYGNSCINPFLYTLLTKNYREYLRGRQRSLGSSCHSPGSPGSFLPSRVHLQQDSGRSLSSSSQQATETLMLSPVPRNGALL
Description: Allosteric modulation of urotensin-2 receptor in Sprague-Dawley rat thoracic aorta assessed as change in human urotensin-2-mediated aortic ring contraction by measuring urotensin-2 pEC50 at 10^-5M preincubated for 15 mins followed by urotensin-2 addition (Rvb = 8.61 +/- 0.05 No_unit).

Test [2] deals with T1, Urotensin-2 receptor. In words: Allosteric modulation of urotensin-2 receptor in Sprague-Dawley rat thoracic aorta assessed as change in URP-mediated aortic ring contraction by measuring URP pEC50 at 10^-5M preincubated for 15 mins followed by URP addition (Rvb = 8.09 +/- 0.03 No_unit).
The target of test [3] is T2, Urotensin-2 receptor (Homo sapiens, UniProt Q9UKP6).
T2 sequence (Q9UKP6 whole entry): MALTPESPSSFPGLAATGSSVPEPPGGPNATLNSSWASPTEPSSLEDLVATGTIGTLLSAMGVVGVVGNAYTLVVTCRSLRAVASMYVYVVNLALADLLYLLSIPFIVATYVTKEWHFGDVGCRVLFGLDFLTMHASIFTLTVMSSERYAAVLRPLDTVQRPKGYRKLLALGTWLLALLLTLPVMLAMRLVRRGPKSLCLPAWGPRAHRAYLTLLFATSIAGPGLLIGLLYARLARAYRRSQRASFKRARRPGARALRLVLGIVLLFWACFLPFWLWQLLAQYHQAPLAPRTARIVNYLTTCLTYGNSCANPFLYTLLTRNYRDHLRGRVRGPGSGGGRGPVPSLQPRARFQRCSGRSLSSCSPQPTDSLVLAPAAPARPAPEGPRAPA
In words: Allosteric modulation of human urotensin-2 receptor expressed in HEK293 cells assessed as change in URP-induced G12 activation by measuring URP pEC50 at 10^-5 M preincubated for 30 mins followed by URP addition by BRET assay (Rvb = 6.75 +/- 0.19 No_unit). On the technique in general: Bioluminescence resonance energy transfer reports proximity on the nanometre scale.

Test [4] deals with T2, Urotensin-2 receptor. Description: Allosteric modulation of human urotensin-2 receptor expressed in HEK293 cells assessed as change in human urotensin-2-induced Gq activation by measuring urotensin-2 pEC50 at 10^-5 M preincubated for 30 mins followed by urotensin-2 addition by BRET assay (Rvb = 7.88 +/- 0.07 No_unit).
In test [5] the target is T2, Urotensin-2 receptor. Description: Allosteric modulation of human urotensin-2 receptor expressed in HEK293 cells assessed as change in URP-induced Gq activation by measuring URP pEC50 at 10^-5 M preincubated for 30 mins followed by URP addition by BRET assay (Rvb = 8.28 +/- 0.08 No_unit).
Test [6] concerns the target T2, Urotensin-2 receptor. In words: Allosteric modulation of human urotensin-2 receptor expressed in HEK293 cells assessed as change in human urotensin-2-induced G12 activation by measuring urotensin-2 pEC50 at 10^-5 M preincubated for 30 mins followed by urotensin-2 addition by BRET assay (Rvb = 6.31 +/- 0.17 No_unit).
Test [7] is described as follows: Allosteric modulation of urotensin-2 receptor in Sprague-Dawley rat thoracic aorta assessed as change in URP-mediated aortic ring contraction by measuring URP pEC50 at 1 uM preincubated for 15 mins followed by URP addition (Rvb = 8.09 +/- 0.03 No_unit).
The nature of test [8]: Allosteric modulation of urotensin-2 receptor in Sprague-Dawley rat thoracic aorta assessed as change in human urotensin-2-mediated aortic ring contraction by measuring urotensin-2 pEC50 at 1 uM preincubated for 15 mins followed by urotensin-2 addition (Rvb = 8.61 +/- 0.05 No_unit).

In the case of `COc1ccc(C=CC2=NN(CCCCN)C(=O)N(Cc3ccc4ccccc4c3)c3ccccc32)cc1`, the EC50 (in general, the concentration giving half of the maximal effect) is 3.6 nM at Urotensin-2 receptor [1] and 8.5 nM at Urotensin-2 receptor [2].

With `COc1ccc(C=CC2=NN(CCCCN)C(=O)N(Cc3ccc(-c4ccccc4)cc3)c3ccccc32)cc1`, the EC50 at Urotensin-2 receptor [2] was found to be 6.3 nM; on Urotensin-2 receptor [3] it was 1740 nM; at Urotensin-2 receptor [4], 8.5 nM; on Urotensin-2 receptor [5], 7.1 nM; on Urotensin-2 receptor [6], 2240 nM.

With `NCCCCN1N=C(C=Cc2ccc(O)cc2)c2ccccc2N(Cc2ccc3ccccc3c2)C1=O`, the EC50 on Urotensin-2 receptor [1] was found to be 15 nM.

Take `NCCCCN1N=C(C=Cc2ccc(O)cc2)c2ccccc2N(Cc2ccc(-c3ccccc3)cc2)C1=O`: the EC50 at Urotensin-2 receptor [2] was found to be 9.3 nM; on Urotensin-2 receptor [3], 117 nM; on Urotensin-2 receptor [4], 14 nM; on Urotensin-2 receptor [5] it was 4.2 nM; on Urotensin-2 receptor [6], 2190 nM.

Consider `COc1ccc(CCC2=NN(CCCN)C(=O)N(Cc3ccc(-c4ccccc4)cc3)c3ccccc32)cc1`, for which the results for the EC50 at Urotensin-2 receptor [1] and on Urotensin-2 receptor [2] were 3.2 nM and 7.8 nM, respectively.

For `COc1ccc(CCC2=NN(CCCCN)C(=O)N(Cc3ccc4ccccc4c3)c3ccccc32)cc1`, the EC50 on Urotensin-2 receptor [1] was determined as 5 nM; on Urotensin-2 receptor [2] it was 4 nM.

With `COc1ccc(CCC2=NN(CCCCN)C(=O)N(Cc3ccc(-c4ccccc4)cc3)c3ccccc32)cc1`, the results for the EC50 at Urotensin-2 receptor [1] and on Urotensin-2 receptor [2] were 3.7 nM and 5 nM, respectively.

For the molecule `NCCCN1N=C(CCc2ccc(O)cc2)c2ccccc2N(Cc2ccc3ccccc3c2)C1=O`, the EC50 at Urotensin-2 receptor [1] was 3.7 nM; on Urotensin-2 receptor [2], 10 nM.

For the molecule `NCCCCN1N=C(CCc2ccc(O)cc2)c2ccccc2N(Cc2ccc3ccccc3c2)C1=O`, the EC50 came out at 4.4 nM on Urotensin-2 receptor [1]; 10 nM on Urotensin-2 receptor [2]; 1100 nM on Urotensin-2 receptor [3]; 11 nM at Urotensin-2 receptor [4]; 5 nM at Urotensin-2 receptor [5]; 1180 nM at Urotensin-2 receptor [6].

As to `NCCCCN1N=C(CCc2ccc(O)cc2)c2ccccc2N(Cc2ccc(-c3ccccc3)cc2)C1=O`, the values for the EC50 on Urotensin-2 receptor [1] and on Urotensin-2 receptor [2] were 3.5 nM and 20 nM, respectively.

For the molecule `NCCCN1N=C(CCc2nc3ccccc3s2)c2ccccc2N(Cc2ccc(-c3ccccc3)cc2)C1=O`, the EC50 at Urotensin-2 receptor [1] was found to be 1.4 nM; on Urotensin-2 receptor [2], 3.7 nM.

For the molecule `NCCCCN1N=C(CCc2nc3ccccc3s2)c2ccccc2N(Cc2ccc(-c3ccccc3)cc2)C1=O`, the results for the half-maximal effective concentration (EC50) on Urotensin-2 receptor [1] and on Urotensin-2 receptor [2] were 12 nM and 3.7 nM, respectively.

Take `CNCCCCN1N=C(CCc2nc3ccccc3s2)c2ccccc2N(Cc2ccc(-c3ccccc3)cc2)C1=O`: the EC50 stood at 6 nM at Urotensin-2 receptor [1] and 15 nM at Urotensin-2 receptor [2].

Turning to `NCCCN1N=C(CCc2nc3ccccc3s2)c2ccccc2N(Cc2ccc3ccccc3c2)C1=O`, the EC50 on Urotensin-2 receptor [1] worked out at 3.3 nM; at Urotensin-2 receptor [2], 4 nM; on Urotensin-2 receptor [3], 1950 nM; on Urotensin-2 receptor [4] it was 11 nM; on Urotensin-2 receptor [5] it was 6.2 nM; at Urotensin-2 receptor [6], 3720 nM.

As to `CNCCCCN1N=C(CCc2nc3ccccc3s2)c2ccccc2N(Cc2ccc3ccccc3c2)C1=O`, the EC50 on Urotensin-2 receptor [1] and at Urotensin-2 receptor [2] was 4.3 nM each time.

Regarding `CNCCCCN1N=C(CCc2nc3ccccc3s2)c2ccccc2N(Cc2cccc3ccccc23)C1=O`, the EC50 was 4.1 nM on Urotensin-2 receptor [1] and 6.6 nM at Urotensin-2 receptor [2].

`NCCCCN1N=C(CCc2nc3ccccc3s2)c2ccccc2N(Cc2ccc3ccccc3c2)C1=O`: the EC50 on Urotensin-2 receptor [1] was found to be 3 nM; at Urotensin-2 receptor [2], 3.5 nM.

As to `COc1ccc(CCC2=NN(CCCN)C(=O)N(Cc3ccc4ccccc4c3)c3ccccc32)cc1`, the EC50 on Urotensin-2 receptor [1] is 4 nM; on Urotensin-2 receptor [2] it was 6.3 nM.

For the molecule `NCCCN1N=C(CCc2ccc(O)cc2)c2ccccc2N(Cc2ccc(-c3ccccc3)cc2)C1=O`, the EC50 turned out to be 4.5 nM on Urotensin-2 receptor [1] and 11 nM on Urotensin-2 receptor [2].

For `CNCCCN1N=C(CCc2nc3ccccc3s2)c2ccccc2N(Cc2ccc(-c3ccccc3)cc2)C1=O`, the EC50 at Urotensin-2 receptor [1] was 4.1 nM; at Urotensin-2 receptor [2], 4.9 nM.

As for `NCCCN1N=C(CCc2nc3ccccc3s2)c2ccccc2N(Cc2cccc3ccccc23)C1=O`, the EC50 on Urotensin-2 receptor [1] stood at 4.8 nM; at Urotensin-2 receptor [2] it was 5.8 nM.

For `CC(C)[C@H](NC(=O)[C@@H]1CSSC[C@H](NC(=O)[C@H](C)N)C(=O)N[C@@H](Cc2ccccc2)C(=O)N[C@@H](Cc2ccc(-c3ccccc3)cc2)C(=O)N[C@@H](CCCCN)C(=O)N[C@@H](Cc2ccc(O)cc2)C(=O)N1)C(=O)O`, the EC50 in test [7] turned out to be 18 nM; in test [8] it was 25 nM.

Take `NCCCN1N=C(C=Cc2ccc(O)cc2)c2ccccc2N(Cc2ccc3ccccc3c2)C1=O`: the figures for the EC50 at Urotensin-2 receptor [1] and on Urotensin-2 receptor [2] were 12 nM and 20 nM, respectively.
